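These data come from cells grown in 96-well plates and exposed to compound for 48 hours at five concentrations. At the GI50, growth is halved. TGI is the concentration that stops growth completely.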
Assays:
Assay in all cases: DTP human tumour cell line panel, 48 h
[1] = tested on: NCI-H460 lung
[2] = tested on: U251 CNS
[3] = tested on: T-47D breast
[4] = tested on: SF-539 CNS
[5] = tested on: NCI-H226 lung
[6] = tested on: 786-0 renal
[7] = tested on: SR leukemia
[8] = tested on: A498 renal
[9] = tested on: HOP-62 NSCLC
[10] = tested on: BT-549 breast
[11] = tested on: KM12 colon
[12] = tested on: NCI-H23 lung
[13] = tested on: MOLT-4 leukemia
[14] = tested on: SK-MEL-2 melanoma
[15] = tested on: HL-60(TB) leukemia
[16] = tested on: OVCAR-3 ovarian
[17] = tested on: PC-3 prostate
[18] = tested on: HT29 colon
[19] = tested on: MALME-3M melanoma
[20] = tested on: DU-145 prostate
[21] = tested on: MDA-MB-435
[22] = tested on: HCT-116 colon
[23] = tested on: K-562 leukemia
[24] = tested on: OVCAR-4 ovarian
[25] = tested on: UACC-62 melanoma
[26] = tested on: OVCAR-8 ovarian
[27] = tested on: UO-31 renal
[28] = tested on: SW-620 colon
[29] = tested on: SF-268 CNS
[30] = tested on: SK-MEL-28 melanoma
[31] = tested on: SN12C renal
[32] = tested on: SNB-75 CNS
[33] = tested on: RPMI-8226 leukemia
[34] = tested on: MDA-MB-231 breast
[35] = tested on: ACHN renal
[36] = tested on: CCRF-CEM leukemia
[37] = tested on: A549 NSCLC
[38] = tested on: HOP-92 NSCLC
[39] = tested on: LOX IMVI melanoma
[40] = tested on: NCI-H522 lung
[41] = tested on: HS 578T breast
[42] = tested on: M14 melanoma
[43] = tested on: EKVX NSCLC
[44] = tested on: HCT-15 colon
[45] = tested on: SF-295 CNS
[46] = tested on: SNB-19 CNS
[47] = tested on: UACC-257 melanoma
[48] = tested on: TK-10 renal
[49] = tested on: COLO 205 colon
[50] = tested on: CAKI-1 renal
[51] = tested on: SK-OV-3 ovarian
[52] = tested on: RXF 393 renal
[53] = tested on: HCC-2998 colon
[54] = tested on: NCI/ADR-RES ovarian
[55] = tested on: IGROV1 ovarian
[56] = tested on: SK-MEL-5 melanoma
[57] = tested on: MCF7 breast
[58] = tested on: OVCAR-5 ovarian

## COc1ccc2[nH]c(O)c(C(=Nc3ccc(N(C)C(=O)CN4CCN(C)CC4)cc3)c3ccccc3)c2c1
[1]
  GI50: 2830 nM
  TGI: 11.1 µM
[2]
  GI50: 1840 nM
  TGI: 5.27 µM
[3]
  GI50: 3.54 µM
  TGI: 15.9 µM
[4]
  GI50: 1040 nM
  TGI: 2270 nM
[5]
  GI50: 2270 nM
  TGI: 15.6 µM
[6]
  GI50: 1900 nM
  TGI: 5.52 µM
[7]
  GI50: 230 nM
  TGI: 1450 nM
[8]
  GI50: 1640 nM
  TGI: 3.45 µM
[9]
  GI50: 1120 nM
  TGI: 12.3 µM
[10]
  GI50: 1550 nM
  TGI: 3.19 µM
[11]
  GI50: 19.7 nM
  TGI: 10.5 µM
[12]
  GI50: 1730 nM
  TGI: 12.2 µM
[13]
  GI50: 1450 nM
  TGI: 4.99 µM
[14]
  GI50: 2120 nM
  TGI: 5.37 µM
[15]
  GI50: 880 nM
  TGI: 2860 nM
[16]
  GI50: 2900 nM
  TGI: 7.31 µM
[17]
  GI50: 3.52 µM
  TGI: 17.5 µM
[18]
  GI50: 341 nM
  TGI: 10.8 µM
[19]
  GI50: 1270 nM
  TGI: 2850 nM
[20]
  GI50: 2660 nM
  TGI: 11.8 µM
[21]
  GI50: 1290 nM
  TGI: 11.3 µM
[22]
  GI50: 562 nM
  TGI: 8.37 µM
[23]
  GI50: 609 nM
  TGI: 13.8 µM
[24]
  GI50: 2130 nM
  TGI: 12.6 µM
[25]
  GI50: 5.01 µM
  TGI: 16.4 µM
[26]
  GI50: 3.24 µM
  TGI: 14 µM
[27]
  GI50: 1450 nM
  TGI: 8.45 µM
[28]
  GI50: 1780 nM
  TGI: 11.4 µM
[29]
  GI50: 2100 nM
  TGI: 7.55 µM
[30]
  GI50: 2110 nM
  TGI: 6.12 µM
[31]
  GI50: 740 nM
  TGI: 10.4 µM
[32]
  GI50: 1070 nM
  TGI: 2640 nM
[33]
  GI50: 2500 nM
  TGI: 7.53 µM
[34]
  GI50: 1880 nM
  TGI: 5.17 µM
[35]
  GI50: 2540 nM
  TGI: 10.8 µM
[36]
  GI50: 2680 nM
  TGI: 10.4 µM
[37]
  GI50: 2730 nM
  TGI: 14.1 µM
[38]
  GI50: 436 nM
  TGI: 5.55 µM
[39]
  GI50: 1020 nM
  TGI: 2190 nM
[40]
  GI50: 2520 nM
  TGI: 8.96 µM
[41]
  GI50: 1090 nM
  TGI: 4.67 µM
[42]
  GI50: 1260 nM
  TGI: 2890 nM
[43]
  GI50: 3.94 µM
  TGI: 16.2 µM
[44]
  GI50: 2650 nM
  TGI: 12 µM
[45]
  GI50: 4.65 µM
  TGI: 15.8 µM
[46]
  GI50: 3.72 µM
  TGI: 10.7 µM
[47]
  GI50: 1730 nM
  TGI: 4.08 µM
[48]
  GI50: 1990 nM
  TGI: 7.08 µM
[49]
  GI50: 575 nM
  TGI: 2900 nM
[50]
  GI50: 847 nM
  TGI: 5.92 µM
[51]
  GI50: 2960 nM
  TGI: 9.32 µM
[52]
  GI50: 1040 nM
  TGI: 2360 nM
[53]
  GI50: 2470 nM
  TGI: 8.59 µM
[54]
  GI50: 11.1 µM
  TGI: 29.7 µM
[55]
  GI50: 1360 nM
  TGI: 10.1 µM
[56]
  GI50: 1750 nM
  TGI: 3.43 µM
[57]
  GI50: 725 nM
  TGI: 3.62 µM
[58]
  GI50: 2680 nM
  TGI: 16.4 µM

— PubChem BioAssay (NCI)
